Measurements as given in patent US12037324B2, “Biarylmethyl heterocycles” (Université de Montréal, priority 2016, dated 2024).

Key:
Format in all cases: cell-based
AGTR1 = biological target: T1, AGTR1 (Homo sapiens, UniProt P30556); assay: DiscoveRx β-arrestin2 recruitment assay (enzyme complementation, Pathunter CHO-K1 AGTR1 β-arrestin cell line); conditions: DiscoveRx β-arrestin2 recruitment
T1 construct: host or cells: Pathunter CHO-K1 AGTR1 β-arrestin cell line (CHO-K1)
T1 sequence (P30556 1-359): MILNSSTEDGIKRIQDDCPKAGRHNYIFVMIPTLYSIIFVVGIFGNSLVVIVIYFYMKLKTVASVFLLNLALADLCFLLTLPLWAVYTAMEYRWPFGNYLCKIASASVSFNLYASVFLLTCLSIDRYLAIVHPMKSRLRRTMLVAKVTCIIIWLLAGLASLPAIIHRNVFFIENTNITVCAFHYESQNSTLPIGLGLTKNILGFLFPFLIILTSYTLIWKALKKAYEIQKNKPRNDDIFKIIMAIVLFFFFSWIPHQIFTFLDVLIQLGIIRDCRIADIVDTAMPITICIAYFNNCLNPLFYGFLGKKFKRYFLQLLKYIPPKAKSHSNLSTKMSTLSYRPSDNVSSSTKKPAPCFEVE
Method in brief: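 Chemiluminescent enzyme-complementation read-out of β-arrestin2 recruitment to AGTR1 in engineered CHO-K1 cells after 90 min compound exposure at 37° C. Values are 4-parameter logistic EC50s in agonist mode, IC50s in antagonist mode, with efficacy relative to the maximal All response.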

hAT1R [1] = biological target: T2, hAT1R (Homo sapiens, UniProt P30556); assay: BRET β-arrestin2 biosensor assay, higher receptor expression (hAT1R 5 ng/well), HEK293 cells; conditions: for EC50: High AT1R Expression
T2 sequence (P30556 1-359): T1 sequence (P30556 1-359)

hAT1R [2] = biological target: T2, hAT1R; assay: BRET Gq biosensor assay, agonist response, HEK293 cells; conditions: section of the 42nd table directly before the BRET P63 section
Method in brief: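 Agonist EC50 derived from a 4-parameter fit of BRET2 ratio (GFP 515 nm/Rluc 410 nm), scaled between unstimulated control and maximal AngII response. Readings taken 5 min after compound addition at room temperature, with 2 μM coelenterazine, in HEK293 cells expressing hAT1R, Gαq-Rluc, Gβ1 and GFP-Gγ1 (transfected two days earlier).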

Row | Compound | EC50 (AGTR1) | DiscoveRx β-arrestin2 Ymax (%) (AGTR1; maximal response) | BRET β-Arrestin2 High AT1R Expression Ymax (%) (hAT1R [1]) | EC50 (hAT1R [1]) | EC50 (hAT1R [2]) | DiscoveRx β-arrestin2 Ymax (%) (AGTR1)
1 | CCCCC(=O)N(Cc1ccc(-c2cc(-c3ccccc3)ccc2-c2nn[nH]n2)cc1)[C@]1(C(=O)O)CC[C@@H](O)CC1 [Example 283, (1R,4R)-1-(N-((6′-(2H-Tetrazol-5-yl)-[1,1′:3′,1″-terphenyl]-4-yl)methyl)pentan-amido)-4-hydroxycyclohexanecarboxylic acid] | 44.5 nM | 57.5% | 88.5% | 22.8 nM | 155 nM | 
2 | CCCCC(=O)N(Cc1ccc(-c2cc(-c3ccccc3)ccc2-c2nn[nH]n2)cn1)C1(C(=O)O)CCCCC1 [Example 274] | 251 nM | 37.5% | 82.5% | 279 nM | 1490 nM | 
3 | CCCCC(=O)N(Cc1ccc(-c2cc(-c3ccccc3)ccc2-c2noc(=O)[nH]2)cc1)C1(C(=O)OC)CCCCC1 [Example 280, Methyl 1-(N-((6′-(5-oxo-4,5-dihydro-1,2,4-oxadiazol-3-yl)-[1,1′:3′,1″-terphenyl]-4-yl)methyl)pentanamido)cyclohexanecarboxylate] | 904 nM | 35.2% | 75.7% | 699 nM | 2870 nM | 
4 | CCCCC(=O)N(Cc1ccc(-c2cc(Oc3ccccc3)ccc2-c2nn[nH]n2)cc1)[C@H](C(=O)O)C(C)C [Example 435, (S)-3-Methyl-2-(N-((5′-phenoxy-2′-(2H-tetrazol-5-yl)-[1,1′-biphenyl]-4-yl)methyl)pentanamido)butanoic acid] | 1410 nM |  | 12.3% | 305 nM | > 100000 nM | 19.1%
5 | CCCCc1ncc(C(=O)NCC)n1Cc1ccc(-c2cc(-c3ccccc3)ccc2-c2nn[nH]n2)cc1 [Example 379] | 21.2 nM | 30.2% | 72.7% | 56.3 nM | 106 nM | 
6 | CCCCC(=O)N(Cc1ccc(-c2cc(-c3cccnc3OC)ccc2-c2nn[nH]n2)cc1)C1(C(=O)O)CCCCC1 [Example 290] | 88.5 nM | 30.7% | 31.2% | 67.3 nM | 503 nM | 
7 | CCCCc1ncc(C(=O)NCCC2CC2)n1Cc1ccc(-c2cc(-c3ccccc3)ccc2-c2nn[nH]n2)cc1 [Example 357] | 19.6 nM | 41.8% | 72.5% | 23.4 nM | 46.3 nM | 
8 | CCCCc1nc(Cl)c(C(N)=O)n1Cc1ccc(-c2cc(-c3ccccc3)ccc2-c2noc(=O)[nH]2)cc1 [Example 394] | 365 nM | 59.1% | 94.9% | 37.3 nM | 76.4 nM | 
9 | CCCCC(=O)N(Cc1ccc(-c2cc(-c3ccc(NC(C)=O)cc3)ccc2-c2nn[nH]n2)cc1)C1(C(=O)O)CCCCC1 [Example 291] | 134 nM | 10.0% | 9.6% | 1650 nM | > 100000 nM | 
10 | CCCCc1ncc(C(=O)NC2CCCC2)n1Cc1ccc(-c2cc(-c3ccccc3)ccc2-c2nn[nH]n2)cc1 [Example 377] | 49.5 nM | 39.0% | 80.9% | 25.4 nM | 146 nM | 
11 | CCCCc1ncc(C(=O)NCC2CC2)n1Cc1ccc(-c2cc(-c3ccccc3)ccc2-c2nn[nH]n2)cc1 [Example 365] | 46.2 nM | 39.7% | 82.7% | 35.9 nM | 40.8 nM | 
12 | CCCc1nc(C(C)(C)O)c(C(=O)O)n1Cc1ccc(-c2cc(-c3ccccc3)ccc2-c2nn[nH]n2)cc1 [Example 402, sodium 1-((6′-(2H-tetrazol-5-yl)-[1,1′:3′,1″-terphenyl]-4-yl)methyl)-4-(2-hydroxypropan-2-yl)-2-propyl-1H-imidazole-5-carboxylate] | 9.9 nM | 57.0% | 77.8% | 17.9 nM | 64.9 nM | 
13 | CCCCc1ncc(C(=O)O)n1Cc1ccc(-c2cc(-c3ccccc3)ccc2C(=O)O)cc1 [Example 415] | 111 nM | 29.3% | 26.8% | 206 nM | 487 nM | 
14 | CCCc1nc(C(C)(C)O)c(C(=O)[O-])n1Cc1ccc(-c2cc(-c3ccccc3)ccc2-c2noc(=O)[nH]2)cc1.[Na+] [Example 403, 4-(2-hydroxypropan-2-yl)-1-((6′-(5-oxo-4,5-dihydro-1,2,4-oxadiazol-3-yl)-[1,1′:3′,1″-terphenyl]-4-yl)methyl)-2-propyl-1H-imidazole-5-carboxylic acid, Na+] | 14.2 nM | 61.4% | 88.6% | 9.2 nM | 70.9 nM | 
15 | CCCCC(=O)N(Cc1ccc(-c2cc(-c3ccccc3)ccc2-c2nn[nH]n2)cc1)C1(C(=O)O)CC1 [Example 269] | 6540 nM | 14.2% | 58.7% | 30700 nM | > 100000 nM | 
16 | CCCCc1ncc(C(=O)NC2CCC2)n1Cc1ccc(-c2cc(-c3ccccc3)ccc2-c2nn[nH]n2)cc1 [Example 380] | 59.2 nM | 43.1% | 76.0% | 35 nM | 104 nM | 
17 | CCCCc1ncc(C(=O)NC2COC2)n1Cc1ccc(-c2cc(-c3ccccc3)ccc2-c2nn[nH]n2)cc1 [Example 358] | 10.1 nM | 40.2% | 88.8% | 21.4 nM | 44.7 nM | 
18 | CCCCc1ncc(C(=O)NCc2ccccn2)n1Cc1ccc(-c2cc(-c3ccccc3)ccc2-c2nn[nH]n2)cc1 [Example 371] | 5.7 nM | 40.8% | 94.4% | 11 nM | > 1000 nM | 
19 | CCCCc1nc(Cl)c(C(=O)O)n1Cc1ccc(-c2cc(-c3cccc(C(F)F)n3)ccc2-c2nn[nH]n2)cc1 [Example 423, 2-butyl-4-chloro-1-((5′-(6-(difluoromethyl)pyridin-2-yl)-2′-(2H-tetrazol-5-yl)-[1,1′-biphenyl]-4-yl)methyl)-1H-imidazole-5-carboxylic acid] | 22.9 nM | 22.8% | 73.3% | 26 nM | 25.4 nM | 
20 | CCCCC(=O)N(Cc1ccc(-c2cc(-c3ccccc3)ccc2-c2noc(=O)[nH]2)nc1)[C@H](C(=O)O)C(C)C [Example 434, (S)-3-Methyl-2-(N-((6-(4-(5-oxo-4,5-dihydro-1,2,4-oxadiazol-3-yl)-[1,1′-biphenyl]-3-yl)pyridin-3-yl)methyl)pentanamido)butanoic acid 2,2,2-trifluoroacetate] | 72 nM |  | 96.6% | 316 nM | 1280 nM | 40.9%
21 | CCCCc1ncc(C(=O)NCC(F)F)n1Cc1ccc(-c2cc(-c3ccccc3)ccc2-c2nn[nH]n2)cc1 [Example 364] | 23.2 nM | 30.3% | 79.4% | 50.5 nM | 119 nM | 
